Data from publication PMC11761228, “Cinnamic Acid Compounds (p-Coumaric, Ferulic, and p-Methoxycinnamic Acid) as Effective Antibacterial Agents Against Colistin-Resistant Acinetobacter baumannii” (Antibiotics, 2025).
“Also recorded” adds a separate entry of the source.

Experiments:
COLR-Ab4 isolate [1] = assay: Scanning electron microscopy of cell morphology; format: cell-based, Acinetobacter baumannii; conditions: COLR-Ab4, MIC concentrations, 3 h
Method: To examine the potential impact of the antimicrobial agents on the cell morphology of the COLR-Ab4 isolate, SEM studies were carried out according to the method Bendali et al. (2008), with minor modifications. […] Bacteria incubated without treatment with agents were used as controls. After incubation, the suspension was centrifuged for 10 min at 4000× g. The bacteria were washed twice with 0.1 M phosphate-buffered solution (PBS, pH 7.0). The pellet was fixed in 2.5% glutaraldehyde solution and kept for at 4 °C for 2 h. After washing the bacteria again twice with PBS, the sample was fixed in 1% osmium tetroxide solution for 1 h. Then, the samples were dehydrated through suspension in increasing concentrations of ethanol (30, 50, 70, 80, 90, and 100%) for 10 min each. The ethanol was then replaced by 100% acetone. Finally, the samples were fixed on an SEM support, coated with gold/palladium using sputtering in a vacuum, and examined using SEM (Zeiss LEO 1430, Cambridge, UK).

Vero cells = assay: CCK-8 cell viability assay; format: cell-based, African green monkey; conditions: 24 h; for Cytotoxicity (doses with cytotoxic effects): 0.78125–200 μg/mL
Method: 293T [HEK-293] (ATCC® CRL-1573), HUVEC (ATCC CRL-1730 ™, human umbilical vein endothelial cells) and Vero (ATCC® CCL-81™, African green monkey kidney epithelial cells) cells were used in this study. Cells were cultured in RPMI-1640 medium supplemented with 10% fetal bovine serum, 0.1 mM non-essential amino acids, […], 2 mM L-glutamine, and 10 μg/mL gentamicin in a humidified atmosphere of 5% CO2, 95% air at 37 °C. After growing to approximately 80% confluence, the cells were detached with 0.25% (w/v) trypsin-EDTA and then subcultured. The cells were stored in a deep freezer at −80 °C in a solution prepared with 95% medium and 5% DMSO.
Cell viability was assessed according to the manufacturer’s protocol using a Cell Counting Kit-8 (CCK-8) (KTA1020, Abbkine, Atlanta, GA, USA). The assay is based on the reduction of 2-(2-methoxy-4-nitrophenyl)-3-(4-nitrophenyl)-5-(2,4-disulfophenyl)-2H-tetrazolium monosodium salt (WST-8) by cellular mitochondrial dehydrogenase. Cells were seeded in 96-well plates at a final concentration of 5 × 10^3 cells/well in 100 μL complete culture medium and were allowed to attach for 24 h. […] Immediately after the treatment, cell viability in a single column was determined and recorded as time zero (T0). The plain medium with 1% FBS was used as a negative control, whereas ethanol was used as solvent control. Each treatment was performed in four well replicates. At the end of the incubation, the medium was gently aspirated to terminate the experiment, a total volume of 10 μL (5 mg/mL) of CCK-8 solution was added to each well and further incubated under the same conditions for 4 h. The absorbances at 450 nm were measured in a microplate reader (Thermo Labsystem, Waltham, MA, USA), using wells without cells as background. The sample readings were calculated by subtracting the average of background absorbances. The half-maximal inhibitory concentration (IC50) of each extract was derived by a nonlinear regression model (curve-fit) based on a sigmoidal dose response curve (variable slope) and was computed using Graph-Pad Prism, version 4.00 (Graph-Pad Software, San Diego, CA, USA). Cell viability was calculated using the following formula: Cell viability (%) = (ODtreatment − ODblank)/(ODcontrol − ODblank) × 100% [78].

COLR-Ab isolates = assay: Checkerboard synergy test with COL; format: cell-based, Acinetobacter baumannii
Method: The checkerboard synergy test, based on microdilution, was carried out to investigate the combined activity of antibiotic and cinnamic acid derivatives. The effectiveness of the two antimicrobial drugs in combination was evaluated using a 96-well microplate for each strain. The medium employed was CAMHB. […] COL was added vertically, and cinnamic acids was added horizontally to the wells. The bacterial suspension was prepared to 0.5 McFarland standard density, and the final bacterial concentration was adjusted to 5 × 10^5 CFU/mL. In total, 10 µL of bacterial inoculum was added to each well. Bacterial growth control (CAMHB + bacteria) and medium sterility control (CAMHB) were also examined for each plate. The plates were incubated at 35 ± 2 °C for 18–24 h. Each experiment was conducted in triplicate.
The fractional inhibition concentrations (FIC) of all antimicrobial agents were calculated for the evaluation of the results in accordance with the following formulae:FICA = (MIC of A in combination/MIC of A alone)FICB = (MIC of B in combination/MIC of B alone)FICindex(FICI) = FICA + FICB
FICI ≤ 0.5 was considered to indicate synergism, […] ≤ 4 was considered to indicate indifference, and FICI > 4 was considered to indicate antagonism. In the formulae, the letter “A” is used to represent COL, while “B” is used to represent one of the compounds, p-CA, FA, and p-MCA.

COLR-Ab4 isolate [2] = assay: Cytoplasmic membrane permeability assay (A260 of supernatant); format: cell-based, Acinetobacter baumannii; conditions: 3 h
Method: A cell membrane permeability assay was carried out in accordance with the methods described by Köse (2023). […] The bacteria were firstly incubated in MHB at 35 ± 2 °C overnight. Subsequently, the bacterial culture was centrifuged at 4000× g at 15 min, after which the pellet was washed twice with PBS. […] A suspension containing PBS and bacteria was used as a control. All samples were incubated at 35 ± 2 °C for 3 h, centrifuged at 13,400× g for 15 min, and the supernatant was harvested. The absorbance (A)260 of the supernatant was quantified using a UV-Vis spectrophotometer (Agilent Technologies, Santa Clara, CA, USA) to determine the amount of nucleic acid released from the cytoplasm. Each experiment was repeated three times.

SMILES | Cell morphology by SEM (COLR-Ab4 isolate [1]) | Cytotoxicity (doses with cytotoxic effects) (Vero cells) | Interpretation of FICI for COL combined with the compound (COLR-Ab isolates; COLR-Ab1) | Mean FICI for COL combined with the compound (COLR-Ab isolates; COLR-Ab1) | Interpretation of FICI for COL combined with the compound (COLR-Ab isolates; COLR-Ab2) | Mean FICI for COL combined with the compound (COLR-Ab isolates; COLR-Ab2) | Interpretation of FICI for COL combined with the compound (COLR-Ab isolates; COLR-Ab3) | Mean FICI for COL combined with the compound (COLR-Ab isolates; COLR-Ab3) | Interpretation of FICI for COL combined with the compound (COLR-Ab isolates; COLR-Ab4) | Mean FICI for COL combined with the compound (COLR-Ab isolates; COLR-Ab4) | Interpretation of FICI for COL combined with the compound (COLR-Ab isolates; COLR-Ab5) | Mean FICI for COL combined with the compound (COLR-Ab isolates; COLR-Ab5) | Increase in absorbance values at 260 nm vs control (COLR-Ab4 isolate [2]; COLR-Ab4, MIC concentration) [fold] | Increase in absorbance values at 260 nm vs control (COLR-Ab4 isolate [2]; COLR-Ab4, MIC/2 concentration) [fold] | Increase in absorbance values at 260 nm vs control (COLR-Ab4 isolate [2]; COLR-Ab4, MIC/4 concentration) | IC50 value (Vero cells; tested range 0.78–200 μg/mL)
COc1cc(/C=C/C(=O)O)ccc1O [FA, ferulic acid] | certain morphological changes in bacterial cells | no cytotoxic effects; also recorded: did not exhibit any cytotoxic effect | S (synergistic effect) | 0.15 | S (synergistic effect) | 0.15 | S (synergistic effect) | 0.15 | I (indifferent effect) | 0.51 | S (synergistic effect) | 0.12 | 1.66 | 1.52 | 1.14 fold | –
O=C(O)/C=C/c1ccc(O)cc1 [p-CA, p-coumaric acid] | certain morphological changes in bacterial cells | no cytotoxic effects; also recorded: did not exhibit cytotoxic effects | S (synergistic effect) | 0.16 | S (synergistic effect) | 0.19 | S (synergistic effect) | 0.16 | S (synergistic effect) | 0.15 | S (synergistic effect) | 0.28 | 1.9 | 1.71 | 1.19 fold | indeterminate
COc1ccc(C=CC(=O)O)cc1 [p-MCA, p-methoxycinnamic acid] | certain morphological changes in bacterial cells | only 200 μg/mL p-MCA induced cytotoxicity; also recorded: only at 200 μg/mL (p < 0.05) | S (synergistic effect) | 0.09 | S (synergistic effect) | 0.09 | S (synergistic effect) | 0.27 | S (synergistic effect) | 0.14 | S (synergistic effect) | 0.27 | 1.34 | 1.15 | no statistically significant differences | –
